Measurements reported in ChEMBL document CHEMBL5727551, “5-(n-[6,5]-fused bicyclic aryl tetrahydroisoquinolin-6-yl) pyridin-3-yl acetic acid derivatives as inhibitors of human immunodeficiency virus replication” (2020).

Assay: Inhibition of HIV Replication: A recombinant NL-RLuc proviral clone was constructed in which a section of the nef gene from NL4-3 was replaced with the Renilla Luciferase gene. This virus is fully infectious and can undergo multiple cycles of replication in cell culture. In addition, the luciferous reporter provides a simple and easy method for quantitating the extent of virus growth and consequently, the antiviral activity of test compounds. The plasmid pNLRLuc contains the proviral NL-Rluc DNA cloned into pUC 18 at the PvuII site. The NL-RLuc virus was prepared by transfection of 293T cells with the plasmid pNLRLuc. Transfections were performed using the LipofectAMINE PLUS kit from Invitrogen (Carlsbad, Calif.) according to the manufacturer and the virus generated was titered in MT-2 cells. For susceptibility analyses, the titrated virus was used to infect MT-2 cells in the presence of compound, and after 5 days of incubation, cells were processed and quantitated for virus growth by the amount of expressed luciferase. Assay media was RPMI 1640 supplemented with 10% heat inactivated fetal bovine serum (FBS), 100 units/ml penicillin G/100 units/ml streptomycin, 10 mM HEPES buffer pH 7.55 and 2 mM L-glutamine. The results from at least 2 experiments were used to calculate the EC50 values. Luciferase was quantitated using the Dual Luciferase kit from Promega (Madison, Wis.). […]
Type: cell-based

Q: With Cc1nc(C)c([C@H](OC(C)(C)C)C(=O)O)c(N2CCC(C)(C)CC2)c1-c1ccc2c(c1)CCN(c1ncnc3cc[nH]c13)C2 as the compound, how does the EC50 read?
A: 20 nM
